Measured values: patent US12617757B2, “Compounds and modules for inhibition of pre-miR-21 and their use in treatment of certain cancers” (University of Florida Research Foundation, Incorporated, priority 2019, dated 2026)

Assays:
MDA-LM2 cells = test: Boyden chamber invasion assay, MDA-LM2; format: cell-based; settings: LNA-21 100 nM, 2 1000 nM
Procedure: Boyden Chamber Invasion Assay. The MDA-MB-231, MDA-LM2, A375, A549, or MCF-10a cells (5×10^4) were seeded into Hanging Cell Culture Inserts for 24 well plates with uncoated membranes with 8.0 μm pores (Millicell) in serum free growth media. A 3 mg/mL layer (100 μL) of Matrigel (Fisher Scientific: CB40234) diluted with serum free growth media was prepared inside of each membrane. Cells were cultured as described above, with or without compound treatment, and allowed to invade towards complete growth media in the bottom well for 16-24 h before ending the experiment by removing the media in the bottom wells and inserts. The hanging cell culture inserts and bottom wells were washed twice with 1×PBS, gently shaking to mix. Excess liquid and cells inside the insert were removed with cotton swabs, after which 400 μL of 4% paraformaldehyde was placed into the bottom well and incubated for 20 min at room temperature to fix the cells. […] Four different fields of view from each captured image were counted for crystal violet stained or unstained cells. Normalized cells invaded was calculated with equation 5 (Eq 5): […]
where stained cells represent cells counted with crystal violet stain observed in the compound treated or vehicle treated samples, respectively.

pre-miR-21 BP = test: MST binding to pre-miR-21 BP (base paired control); settings: addition of 100 μM of compound
Procedure: Microscale Thermophoresis (MST) Binding Measurements. MST fluorescent measurements were performed on a Monolith NT.115 system (NanoTemper Technologies) using the fluorescence of a miR-21 hairpin (A+U Bulge): (5′ Cy5-[…]-3′) (SEQ ID NO: 1) or a miR-21 base paired control (5′ Cy5-[…]-3′) (SEQ ID NO: 2) which were purchased from IDT with RNase-free HPLC purification and used without further purification. The RNA (5 nM) was diluted in 1×MST Buffer (8 mM Na2HPO4, 190 mM NaCl, 1 mM EDTA, and 0.05% (v/v) Tween-20) and folded by heating at 60° C. for 5 min, and slowly cooling to room temperature. Compounds 1 and 2 were diluted in 1×MST Buffer, followed by 1:3 dilutions in 1×MST Buffer containing 5 nM RNA. […] Fluorescence measurements (Ex: 605-645 nm, Em: 680-685 nm) were performed at 10% LED and 80% MST power, with a Laser-On time of 30 s and Laser-Off time of 5 s. The data were analyzed by thermophoresis analysis and fitted by the quadratic binding equation in MST analysis software (NanoTemper Technologies). Dissociation constants were then determined by curve fitting using a single-site model. Normalized MST signal was calculated by normalizing the fluorescent signals using the MST data of 1 binding to pre-miR-21 WT with the lowest signal as 0 and the highest fluorescent signal as 1.

pre-miR-21 = test: In vitro RNase L cleavage of pre-miR-21 (FRET sensor, gel mapping); format: biochemical
Procedure: In Vitro Fluorescent RNA Cleavage. A model RNA hairpin^15 labeled with a 5′ 6-Fluorescein (6FAM) and 3′ Black Hole Quencher (IQ4) (5′ 6FAM-[…]-3′ IQ4; 5′ FAM/3′ BHQ model RNA) (SEQ ID NO: 3) or a miR-21 Hairpin Precursor RNA labeled with a 5′ 6-Fluorescein (6FAM) and 3′ Black Hole Quencher (IQ4) (5′ 6FAM-[…] […]-3′ IQ4; 5′ FAM/3′ BHQ miR-21 Hairpin Precursor RNA) (SEQ ID NO: 4) was purchased from Chemgenes with HPLC purification. Solutions of RNA (100 nM) were folded at 65° C. for 5 min and slowly cooled to room temperature in 1×RNase L Buffer (25 mM Tris-HCl, pH 7.4, 100 mM KCl) without MgCl2, β-mercaptoethanol or ATP. After folding, the RNA was supplemented with 10 mM MgCl2, fresh 7 mM β-mercaptoethanol, and 50 μM of ATP. Next, 100 nM of RNase L, prepared as described previously^22, and various concentrations of screening compounds were prepared in 1×RNase L Buffer and added to the RNA. […] The samples were incubated at room temperature for 60 min after which the fluorescence intensity (Ex: 485 nm, Em: 525 nm) was measured using a SpectraMax M5 plate reader or Biotek FLx800 plate reader. The percentage change in fluorescence intensity, where enhancement of fluorescence intensity was indicative of RNA cleavage, was determined by calculating the percentage change in sample fluorescent signals relative to the untreated fluorescent signal (Fi, %). […]

RNase L = target: T1, RNase L (Homo sapiens, UniProt Q05823); test: Co-immunoprecipitation of RNase L from treated cells; format: cell-based; parameters: endogenous in cells; host or cells: MDA-MB-231
T1 sequence (Q05823 1-741): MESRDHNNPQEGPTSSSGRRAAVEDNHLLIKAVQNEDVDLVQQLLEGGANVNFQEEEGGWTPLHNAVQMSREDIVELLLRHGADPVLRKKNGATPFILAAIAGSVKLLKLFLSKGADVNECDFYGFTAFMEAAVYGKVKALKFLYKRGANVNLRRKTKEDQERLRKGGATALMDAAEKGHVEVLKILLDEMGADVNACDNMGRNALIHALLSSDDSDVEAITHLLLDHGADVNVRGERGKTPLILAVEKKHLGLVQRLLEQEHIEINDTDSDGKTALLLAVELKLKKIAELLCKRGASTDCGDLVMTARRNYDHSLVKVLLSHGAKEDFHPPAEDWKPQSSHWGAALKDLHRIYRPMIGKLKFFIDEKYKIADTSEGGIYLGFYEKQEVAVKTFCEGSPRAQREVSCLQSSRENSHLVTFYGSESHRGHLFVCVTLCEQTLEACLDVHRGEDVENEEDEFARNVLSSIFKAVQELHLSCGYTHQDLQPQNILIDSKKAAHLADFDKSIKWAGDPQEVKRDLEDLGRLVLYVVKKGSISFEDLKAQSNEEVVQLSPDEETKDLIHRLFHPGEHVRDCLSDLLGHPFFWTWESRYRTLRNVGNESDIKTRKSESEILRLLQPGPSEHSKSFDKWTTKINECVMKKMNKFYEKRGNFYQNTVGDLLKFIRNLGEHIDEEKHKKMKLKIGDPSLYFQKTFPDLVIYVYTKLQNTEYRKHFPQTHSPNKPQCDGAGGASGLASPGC

For CCCN(CC(=O)N(CCC)CC(=O)N(CCC)CC(=O)N(CC(N)=O)Cc1cn(CCCNC(=O)CCCOc2ccc(-c3nc4cc(-c5ccc(N6CCN(C)CC6)cc5)ccc4[nH]3)cc2)nn1)C(=O)CNCc1cn(CCCNC(=O)CCCOc2ccc(-c3nc4cc(-c5ccc(N6CCN(C)CC6)cc5)ccc4[nH]3)cc2)nn1 [Compound 2], the effect on invasion (MDA-LM2 cells) was “decreased the invasive phenotype” and the “saturation of the binding isotherm” value (pre-miR-21 BP) was “No saturation of the binding isotherm was observed”.
In the case of CCCN(CC(=O)N(CCC)CC(=O)N(CCC)CC(=O)N(CC(=O)NCCOCCOCCOCCOc1ccc(C=C2SC(Nc3ccccc3)=C(C(=O)OCC)C2=O)cc1O)Cc1cn(CCCNC(=O)CCCOc2ccc(-c3nc4cc(-c5ccc(N6CCN(C)CC6)cc5)ccc4[nH]3)cc2)nn1)C(=O)CN(Cc1cn(CCCNC(=O)CCCOc2ccc(-c3nc4cc(-c5ccc(N6CCN(C)CC6)cc5)ccc4[nH]3)cc2)nn1)C(C)=O [Compound 5], the “cleavage sites in labeled pre-miR-21 WT RNA (gel mapping)” value (pre-miR-21; 5 and RNase L treatment) is reported as “Cleavage was observed at U27, G25, C23, and G21”, the “fluorescence cleavage of pre-miR-21 labeled FRET sensor” value (pre-miR-21; with RNase L) is reported as “dose responsive increase in cleavage” and the “pre-miR-21 in the enriched fraction of RNase L co-immunoprecipitation” value (RNase L) is reported as “increased levels of pre-miR-21 in the enriched fraction”. For the same compound, the “enrichment of pre-miR-210 in RNase L co-immunoprecipitation” value (RNase L; 200 nM) was “no enrichment of pre-miR-210” and the “increase in pre-miR-21 in RNase L co-immunoprecipitation” value (RNase L; 200 nM) was ~3 fold.
